Laboratory results from patent US20240174622A1, “COMPOUND AND RADIOACTIVE LABELING COMPOUND” (NIHON MEDI-PHYSICS CO., LTD., priority 2021, published 2024).
Values joined by “and” are separate entries in the source; they are usually repeats but may differ in a detail not shown here. Equal values may be shown once.

Key:
[1] = tested on: LNCaP tumor-transplanted mouse; test: Internal radioactivity distribution using LNCaP tumor-transplanted mouse; format: in vivo
Description: (§1) The animal test was performed in compliance with the guidelines of Kyoto University Animal Experiment Committee. Male CB17/IcrJcl-Prkdc^scid mice were purchased from CLEA Japan, Inc. The animals were kept under 12 h/12 h, day/night cycle conditions and fed ad libitum with food and water. LNCaP cells (1.0×10^7 cells/mouse) or PC-3 cells (1.0×10^7 cells/mouse) were suspended in a mixture of PBS and Matrigel manufactured by Corning Life Sciences (1:1, 150 μL) and the suspension was subcutaneously transplanted to the right shoulder of mice under isoflurane anesthesia. Thereafter, the mice were kept for 40 to 60 days.
LNCaP or PC-3 tumor-implanted mice were administered saline solutions (185 kBq, 100 μL) of [^111In]In-PSMA-DA1 or [^111In]In-PSMA-DB from the tail vein (n=3 each). Mice were euthanized 1, 4, 24, 48, 96, and 192 hours after administration. Thereafter, blood and each organ were recovered, and the mass and radioactivity of the organs were measured.
The percentage (% ID) of the radioactivity amount to the administered radioactivity amount (injected dose) is shown as the value (% ID/g) divided by the blood mass or the organ mass (g).
LNCaP tumor-implanted mice prepared by the same method as in Example 1-1 were administered a saline solution (241 kBq/100 μL) of [^111In]In-PtDA from the tail vein (n=3). Mice were euthanized 1, 24, and 48 hours after administration. Thereafter, blood and each organ were recovered, and the mass and radioactivity of the organs were measured.
LNCaP tumor-implanted mice prepared by the same method as in Example 1-1 were administered a saline solution (259 kBq/100 μL each) of each of the radiolabeled compounds in Examples 3-1 to 3-3 or Comparative Examples 2-1 to 2-2 from the tail vein (n=2 to 3). Mice were euthanized 1, 4, 24, 48, 96, and 192 hours after administration. Thereafter, blood and each organ were recovered, and the mass and radioactivity of the organs were measured.
as §1, with “LNCaP cells (4.3×10^6 cells/mouse) or” for “LNCaP cells (1.0×10^7 cells/mouse) or”, “PC-3 cells (3.3×10^6 cells/mouse) were” for “PC-3 cells (1.0×10^7 cells/mouse) were”, “shoulder of CB17/IcrJcl-Prkdc^scid mice under” for “shoulder of mice under”
Mice were euthanized 1, 4, 24, 48, 96, and 192 hours after administration. Thereafter, blood and each organ were recovered, and the mass and radioactivity of the organs were measured.
The results are shown in Table 12 (Mean value±standard deviation, n=3).

LNCaP tumor = test: SPECT/CT using LNCaP tumor-transplanted mouse; format: in vivo; settings: 24 (and 48) hours after administration
Description: (§2) LNCaP tumor-implanted mice prepared by the method described above were administered saline solutions (1.9 to 3.0 MBq, 150 μL) of [^111In]In-PSMA-DA1 or [^111In]In-PSMA-DB from the tail vein. SPECT/CT was performed 24 and 48 hours after administration with FX3300 pre-clinical imaging system, which is manufactured by Gamma Medica-Ideas. Imaging was performed using a pinhole collimator with a diameter of 1.0 mm at a rotation radius of 35 mm, a projection time of 70 seconds, and the number of projections of 32 times under isoflurane anesthesia. After SPECT, CT (Tube voltage: 60 kV, Tube current: 350 μA) was performed. Image reconstruction was performed on the projection data of SPECT through three-dimensional ordered subset expectation maximization method (8 subsets, 5 iterations).
In the figure, the part indicated by the arrow is the location of the tumor, and the part indicated by the circle is the location of the kidney. The higher the SUV, the higher the radioactivity accumulation. […]
as §2, with “SPECT/CT” for “LNCaP tumor-implanted mice prepared by the method described above were administered saline solutions (1.9 to 3.0 MBq, 150 μL) of [^111In]In-PSMA-DA1 or [^111In]In-PSMA-DB from the tail vein. SPECT/CT”, “24, 48,” for “24”, “96” for “48”

Blood ([1]; 1 h after administration): 19.8 ± 2.74 % ID/g
Brain ([1]; 1 h after administration): 0.36 ± 0.05 % ID/g
Heart ([1]; 1 h after administration): 5.49 ± 0.77 % ID/g
Intestine ([1]; 1 h after administration): 2.66 ± 0.28 % ID/g
Kidney ([1]; 1 h after administration): 37.2 % ID/g and 37.2 ± 6.85 % ID/g
LNCaP Tumor ([1]; 1 h after administration): 2.18 ± 0.17 % ID/g
Liver ([1]; 1 h after administration): 3.51 ± 0.38 % ID/g
Lung ([1]; 1 h after administration): 11.9 ± 1.57 % ID/g
Muscle ([1]; 1 h after administration): 1.95 ± 0.30 % ID/g
Pancreas ([1]; 1 h after administration): 2.31 ± 0.14 % ID/g
Spleen ([1]; 1 h after administration): 15.3 ± 4.89 % ID/g
Stomach (% ID) ([1]; 1 h after administration): 0.79 ± 0.19 % ID
Blood ([1]; 24 h after administration): 12.5 ± 1.47 % ID/g
Brain ([1]; 24 h after administration): 0.30 ± 0.05 % ID/g
Heart ([1]; 24 h after administration): 3.95 ± 0.87 % ID/g
Intestine ([1]; 24 h after administration): 1.52 ± 0.41 % ID/g
Kidney ([1]; 24 h after administration): 68.0 ± 2.82 % ID/g
LNCaP Tumor ([1]; 24 h after administration): 16.0 % ID/g and 16.0 ± 9.49 % ID/g
Liver ([1]; 24 h after administration): 3.36 ± 0.77 % ID/g
Lung ([1]; 24 h after administration): 8.63 ± 1.31 % ID/g
Muscle ([1]; 24 h after administration): 1.28 ± 0.34 % ID/g
Pancreas ([1]; 24 h after administration): 2.03 ± 0.48 % ID/g
Spleen ([1]; 24 h after administration): 9.69 ± 0.92 % ID/g
Stomach (% ID) ([1]; 24 h after administration): 0.46 ± 0.23 % ID
Blood ([1]; 48 h after administration): 6.33 ± 1.53 % ID/g
Brain ([1]; 48 h after administration): 0.20 ± 0.07 % ID/g
Heart ([1]; 48 h after administration): 1.98 ± 0.41 % ID/g
Intestine ([1]; 48 h after administration): 0.74 ± 0.28 % ID/g
Kidney ([1]; 48 h after administration): 55.9 ± 6.39 % ID/g
LNCaP Tumor ([1]; 48 h after administration): 18.7 % ID/g and 18.7 ± 5.21 % ID/g
Liver ([1]; 48 h after administration): 2.28 ± 0.75 % ID/g
Lung ([1]; 48 h after administration): 6.16 ± 1.56 % ID/g
Muscle ([1]; 48 h after administration): 0.81 ± 0.40 % ID/g
Pancreas ([1]; 48 h after administration): 1.12 ± 0.39 % ID/g
Spleen ([1]; 48 h after administration): 10.5 ± 5.62 % ID/g
Stomach (% ID) ([1]; 48 h after administration): 0.29 ± 0.20 % ID
radioactivity accumulation at the LNCaP tumor in SPECT/CT (LNCaP tumor): high radioactivity accumulation
Structure (SMILES): O=C([O-])CN1CCN(C(CCC(=O)NCCC(=O)N2Cc3ccccc3-c3c(nnn3CCOCCOCCOCCOCCC(=O)NCCCC[C@H](NC(=O)N[C@@H](CCC(=O)O)C(=O)O)C(=O)O)-c3ccccc32)C(=O)[O-])CCN(CC(=O)[O-])CCN(C(CCC(=O)N[C@@H](CCCCNC(=O)CCCc2ccc(I)cc2)C(=O)O)C(=O)[O-])CC1.[111In+3] (stereo partly shown) [[^111In]In-PtDA]
